# Several values for one entry are separate records, joined by “and”; a condition that tells them apart may be missing. Equal values may be shown once. Read-outs that look alike come from different tables or passages of the source.
# Columns and labels:
# Bacillus cereus = assay type: cell-based
# Moraxella catarrhalis = assay type: cell-based
# Pseudomonas stuarti = assay type: cell-based
# Bacillus subtilis = assay type: cell-based
# K. pneumonia = assay: Modified NCCLS microbroth dilution MIC assay; conditions: Klebsiella pneumoniae, read-out: K. pneumonia MIC
# Enterobacter cloacae = assay type: cell-based
# F. tularensis = assay: microbe, parasite or virus in culture; assay type: cell-based; conditions: Francisella tularensis
# Proteus vulgaris = assay type: cell-based
# Staphylococcus aureus = assay: MIC100, control microbial agent, NCCLS guidelines; assay type: cell-based; conditions: strain ATCC29213, control organism (Table 5), read-out: MIC100 S. aureus ATCC29213
# Listeria monocytogenes = assay type: cell-based
# Aspergillus fumigatus = assay: Antifungal MIC/MFC, NCCLS M38-A; assay type: cell-based
# Experimental: (§1) MIC endpoints were determined for A. fumigatus, P. funiculosum, C. globosum and T. virens according to current NCCLS guidelines defined for testing A. fumigatus (NCCLS M38-A, 2002). […] Amphotericin B was included in the screen with C. albicans as a positive control. All MIC testing was done in 96 well microtiter panels using RPMI 1640 (with glutamine and without bicarbonate) broth as a growth media. Incubation was at 35° C., and growth was read at 48, 72, (and for some slow growing fungal species, 96 hours). […] MFC (minimal fungicidal concentrations) endpoints were calculated using a modified methodology based on the NCCLS defined methodology for measuring minimal bactericidal concentrations (MBC). Experimentation to calculate MFCs was undertaken only for those organisms for which an MIC endpoint was satisfactorily calculated. MFCs are defined as the concentration required to reduce the number of viable organisms by at least 90%.
# Penicillium funiculosum = assay: Antifungal MIC/MFC, NCCLS M38-A; assay type: cell-based
# Experimental: as §1
# Chaetomium globosum = assay: Antifungal MIC/MFC, NCCLS M38-A; assay type: cell-based
# Experimental: as §1
# Trichoderma virens = assay: Antifungal MIC/MFC, NCCLS M38-A; assay type: cell-based
# Experimental: as §1
# Streptococcus pyogenes = assay: MIC100, clinical isolates of hospital-acquired pathogens (Table 7); assay type: cell-based; conditions: Mueller Hinton+2-5% lysed horse blood, in µg/mL
# B. subtilis = assay: Modified NCCLS microbroth dilution MIC assay; conditions: Bacillus subtilis
# B. anthracis = assay: microbe, parasite or virus in culture; assay type: cell-based; conditions: Bacillus anthracis
# human erythrocytes = assay: Hemolysis of human erythrocytes (HC50)
# Haemophilus influenzae = assay: MIC100, clinical isolates of hospital-acquired pathogens (Table 7); assay type: cell-based; conditions: Mueller Hinton+NAD+yeast extract+hematin, in µg/mL
# Streptococcus pneumoniae = assay: as above; assay type: cell-based
# Y. pestis = assay: microbe, parasite or virus in culture; assay type: cell-based; conditions: Yersinia pestis, 30 h, read-out: MIC100 Y. pestis (30 hr)
# Bacillus globigii = assay type: cell-based
# Pseudomonas aeruginosa = assay type: cell-based
# E. coli [1] = assay: MIC100, modified NCCLS microbroth dilution (Table 6); assay type: cell-based; conditions: Escherichia coli
# Neisseria sicca = assay type: cell-based
# [2] = system: S. aureus and methicillin-resistant S. aureus (MRSA); assay: MIC100, modified NCCLS microbroth dilution (Table 6); assay type: cell-based; conditions: Staphylococcus aureus
# Streptococcus agalactiae = assay type: cell-based
# Streptococcus gordonii = assay type: cell-based
# Enterococcus faecalis [3] = assay: MIC100, clinical isolates of hospital-acquired pathogens (Table 7); assay type: cell-based; conditions: control strain ATCC 29212
# E. coli [4] = assay: Modified NCCLS microbroth dilution MIC assay; assay type: cell-based; conditions: Escherichia coli
# [5] = system: Staphylococcus saprophyticus; assay type: cell-based
# Klebsiella aerogenes = assay type: cell-based
# Escherichia coli = assay type: cell-based
# Enterococcus faecalis [6] = assay type: cell-based
# [7] = concentration reducing viable organisms by at least 90%
structure (smiles),measurement,setting,value
NCCc1cc(Br)cc(C#Cc2cccc(C#Cc3cc(Br)cc(CCN)c3)c2)c1 [Compound 3],MIC100 Bacillus cereus,Bacillus cereus,1.7 µg/mL
same,MIC100 Moraxella catarrhalis,Moraxella catarrhalis,0.84 µg/mL
same,MIC100 Pseudomonas stuarti,Pseudomonas stuarti,> 6.6 µg/mL
same,MIC100 Bacillus subtilis,Bacillus subtilis,1.7 µg/mL
same,MIC,K. pneumonia,1.7 µg/mL
same,MIC100 Enterobacter cloacae,Enterobacter cloacae,1.7 µg/mL
same,MIC,F. tularensis; read-out: MIC100 F. tularensis 17135,1 µg/mL
same,MIC,F. tularensis; read-out: MIC100 F. tularensis 17137,1 µg/mL
same,MIC100 Proteus vulgaris,Proteus vulgaris,3.4 µg/mL
same,MIC,Staphylococcus aureus,2 µg/mL
same,MIC100 Listeria monocytogenes,Listeria monocytogenes,1.7 µg/mL
same,MIC Aspergillus fumigatus,"Aspergillus fumigatus; RPMI 1640, 35° C.",32/32
same,MFC Aspergillus fumigatus,Aspergillus fumigatus; [7],32/32
same,MIC Penicillium funiculosum,"Penicillium funiculosum; RPMI 1640, 35° C.",1 µg/mL
same,MFC Penicillium funiculosum,Penicillium funiculosum; [7],2 µg/mL
same,MIC Chaetomium globosum,"Chaetomium globosum; RPMI 1640, 35° C.",0.5 µg/mL
same,MFC Chaetomium globosum,Chaetomium globosum; [7],8 µg/mL
same,MIC Trichoderma virens,"Trichoderma virens; RPMI 1640, 35° C.",32/32
same,MFC Trichoderma virens,Trichoderma virens; [7],32/32
same,mic (MIC100) Streptococcus pyogenes,Streptococcus pyogenes,2 and 4
same,MIC,B. subtilis; read-out: B. subtilis MIC,1.6 µg/mL
same,MIC90,B. subtilis; read-out: MIC90 B. subtilis,1.6 µg/mL
same,MIC,B. anthracis; read-out: MIC100 B. anthracis 127,1 µg/mL
same,MIC,B. anthracis; read-out: MIC100 B. anthracis 1099,1 µg/mL
same,MIC,B. anthracis; read-out: MIC100 B. anthracis 7611R,2 µg/mL
same,MIC,B. anthracis; read-out: MIC100 B. anthracis A3,1 µg/mL
same,MIC,B. anthracis; read-out: MIC100 B. anthracis A19,1 µg/mL
same,MIC,B. anthracis; read-out: MIC100 B. anthracis A58,1 µg/mL
same,MIC,B. anthracis; read-out: MIC100 B. anthracis A60,1 µg/mL
same,MIC,B. anthracis; read-out: MIC100 B. anthracis A73,1 µg/mL
same,MIC,B. anthracis; read-out: MIC100 B. anthracis A74,2 µg/mL
same,MIC,B. anthracis; read-out: MIC100 B. anthracis AC1,1 µg/mL
same,MIC,B. anthracis; read-out: MIC100 B. anthracis RA3R,1 µg/mL
same,MIC,B. anthracis; read-out: MIC100 B. anthracis Vollum,2 µg/mL
same,Hemolysis HC50,"human erythrocytes; human erythrocytes, one hour incubation, 50% hemoglobin release, Table 1",75 µg/mL
same,HC50,"human erythrocytes; human erythrocytes, Table 2",75 µg/mL
same,Selectivity HC50/MIC E.coli,human erythrocytes; ratio of HC50 to E. coli MIC,88.2
same,mic (MIC100) Haemophilus influenzae,Haemophilus influenzae,4
same,mic (MIC100) Streptococcus pneumoniae,"Streptococcus pneumoniae; clinical isolates, no phenotype given, Mueller Hinton+2-5% lysed horse blood, in µg/mL",2
same,mic (MIC100) Streptococcus pneumoniae ATCC 49619,Streptococcus pneumoniae; control strain ATCC 49619,2 µg/mL
same,mic (MIC100) Streptococcus pneumoniae PEN-R,"Streptococcus pneumoniae; penicillin-resistant clinical isolates, Mueller Hinton+2-5% lysed horse blood, in µg/mL",2 and 1
same,MIC,Y. pestis,4 µg/mL
same,MIC100 Bacillus globigii,Bacillus globigii,3.4 µg/mL
same,MIC100 Pseudomonas aeruginosa,Pseudomonas aeruginosa,3.4 µg/mL
same,MIC,"E. coli [1]; strain ATCC25922, read-out: MIC100 E. coli ATCC25922",2 µg/mL
same,MIC,"E. coli [1]; strain OC2530, read-out: MIC100 E. coli OC2530",0.5 µg/mL
same,MIC100 Neisseria sicca,Neisseria sicca,3.4 µg/mL
same,MIC,"[2]; ATCC 29213 / MRSA, strain ATCC29213 (Table 6), read-out: MIC100 S. aureus ATCC29213",0.5 µg/mL
same,MIC,"[2]; MRSA, methicillin-resistant S. aureus OC2878, read-out: MIC100 MRSA OC2878",0.5 µg/mL
same,MIC100 Streptococcus agalactiae,Streptococcus agalactiae,0.4 µg/mL
same,MIC100 Streptococcus gordonii,Streptococcus gordonii,1.7 µg/mL
same,mic (MIC100) Enterococcus faecalis ATCC 29212,Enterococcus faecalis [3],1 µg/mL
same,MIC90,E. coli [4]; read-out: MIC90 E. Coli,0.8 µg/mL
same,MIC,"E. coli [4]; 18 to 20 hours incubation, OD 600 nm",0.8 µg/mL
same,MBC,"E. coli [4]; E. coli D31, defined as >3 log reduction in bacterial titre",0.8 µg/mL
same,MIC100 Staphylococcus saprophyticus,[5],0.8 µg/mL
same,MIC100 Klebsiella aerogenes,Klebsiella aerogenes,3.4 µg/mL
same,MIC100 Escherichia coli 6C4468,Escherichia coli,1.7 µg/mL
same,MIC100 Escherichia coli CIS,Escherichia coli,1.7 µg/mL
same,MIC100 Escherichia coli D31,Escherichia coli,0.84 µg/mL
same,MIC100 Enterococcus faecalis,Enterococcus faecalis [6],0.84 µg/mL

# Reference: US8716530B2, “Facially amphiphilic polyaryl and polyarylalkynyl polymers and oligomers and uses thereof” (The Trustess of the University of Pennsylvania, priority 2004, dated 2014)
